Data published in patent publication US10851073B2, “Protein tyrosine phosphatase inhibitors and methods of use thereof” (Calico Life Sciences LLC, priority 2019, dated 2020).

How the values were obtained:
[1] = target: T1, His tagged PTPN2 (TC45) protein (Homo sapiens, UniProt P17706); experiment: Mobility shift assay used to determine potency of PTPN2 inhibitors; assay type: biochemical; details: enzyme 0.5 nM, substrate 2 μM; read-out: PTPN2 MSA IC50
T1 construct: made in house
T1 sequence (P17706 with tags, fused parts or gaps isoform P17706-2): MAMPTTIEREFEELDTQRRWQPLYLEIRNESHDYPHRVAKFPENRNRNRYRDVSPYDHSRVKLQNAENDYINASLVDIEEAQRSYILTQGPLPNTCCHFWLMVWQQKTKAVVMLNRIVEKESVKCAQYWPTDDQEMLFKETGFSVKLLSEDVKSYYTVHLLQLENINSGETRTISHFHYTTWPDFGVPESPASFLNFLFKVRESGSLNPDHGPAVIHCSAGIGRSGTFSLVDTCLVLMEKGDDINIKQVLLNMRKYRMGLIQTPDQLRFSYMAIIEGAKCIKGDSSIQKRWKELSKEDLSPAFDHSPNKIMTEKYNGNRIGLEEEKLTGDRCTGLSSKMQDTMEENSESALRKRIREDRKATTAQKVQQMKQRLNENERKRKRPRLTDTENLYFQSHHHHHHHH
Procedure: Example 227: Mobility Shift Assay Used to Determine Potency of PTPN2 Inhibitors
Compound activity was determined using in house His tagged PTPN2 (TC45) protein (SEQ ID NO: 1) in an in vitro enzymatic reaction. The enzymatic assay used to determine activity was a mobility shift assay using a LabChip EZ Reader by Caliper Life Sciences. The enzymatic reaction was carried out in assay buffer (50 mM HEPES pH 7.5, 1 mM EGTA, 10 mM EDTA, 0.01% Tween® 20, and 2 mM DTT). The compounds were dispensed on a white 384 well ProxiPlate™ (PerkinElmer Catalog #6008289) plate using the Labcyte Echo at varying concentrations (12 point, 1:3 dilution). The enzyme (at 0.5 nM) was incubated with compound for 10 minutes at room temperature. Then the substrate (phosphorylated insulin receptor probe sequence: ((OG488)-(NH—CH2—CH2—O—CH2—CH2—O—CH2—CO)-T-R-D-I-(PY)-E-T-D-Y-Y-R-K-K-NH2) (SEQ ID NO: 2) was added at 2 μM to the plates and incubated for another 10 minutes at room temperature. Finally, a quench solution (water and 4-bromo-3-(2-oxo-2-propoxyethoxy)-5-(3-{[1-(phenylmethanesulfonyl)piperidin-4-yl]amino}phenyl)thiophene-2-carboxylic acid) was added to the plates, which were then run on the EZ Reader (excitation 488 nm, emission 530 nm) to measure % conversion (the amount of phosphorylated substrate which was de-phosphorylated by PTPN2). […] The % inhibition was then used to calculate the IC50 values.

[2] = target: T2, His tagged full-length PTPN1 protein (Homo sapiens, UniProt P18031); experiment: Mobility shift assay (MSA) used to determine potency of PTPN1 inhibitors; assay type: biochemical; details: enzyme 0.5 nM, substrate 2 μM
T2 construct: made in house
T2 sequence (P18031 with tags, fused parts or gaps): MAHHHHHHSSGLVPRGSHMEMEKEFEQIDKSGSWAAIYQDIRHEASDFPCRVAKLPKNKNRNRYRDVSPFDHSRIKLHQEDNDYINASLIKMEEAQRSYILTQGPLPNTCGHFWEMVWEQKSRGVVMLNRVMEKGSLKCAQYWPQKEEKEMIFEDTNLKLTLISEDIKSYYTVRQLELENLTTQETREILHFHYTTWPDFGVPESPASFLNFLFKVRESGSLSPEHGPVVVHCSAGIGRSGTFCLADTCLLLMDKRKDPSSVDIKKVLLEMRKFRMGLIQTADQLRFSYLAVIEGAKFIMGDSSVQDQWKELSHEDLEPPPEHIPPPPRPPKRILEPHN
Procedure: Example 228: Mobility Shift Assay (MSA) Used to Determine Potency of PTPN1 Inhibitors
Compound activity was determined using in house His tagged full-length PTPN1 protein (SEQ ID NO: 3) in an in vitro enzymatic reaction. The enzymatic assay used to determine activity is a mobility shift assay using a LabChip EZ Reader by Caliper Life Sciences. The enzymatic reaction was carried out in assay buffer (50 mM HEPES pH 7.5, 1 mM EGTA, 10 mM EDTA, 0.01% Tween® 20, and 2 mM DTT). The compounds were dispensed on a white 384 well ProxiPlate™ (PerkinElmer Cat^# 6008289) plate using a Labcyte Echo® liquid handler at varying concentrations (12 point, 1:3 dilution). The enzyme (at 0.5 nM) was incubated with compound for 10 minutes at room temperature. Then the substrate (phosphorylated insulin receptor probe sequence: ((OG488)-(NH—CH2—CH2—O—CH2—CH2—O—CH2—CO)-T-R-D-I-(PY)-E-T-D-Y-Y-R-K-K-NH2) (SEQ ID NO: 2) was added at 2 μM to the plates and incubated for another 10 minutes at room temperature. Finally, a quench solution (water and 4-bromo-3-(2-oxo-2-propoxyethoxy)-5-(3-{[1-(phenylmethanesulfonyl)piperidin-4-yl]amino}phenyl)thiophene-2-carboxylic acid) was added to the plates, which were then run on the EZ Reader (excitation 488 nm, emission 530 nm) to measure % conversion (the amount of phosphorylated substrate which was de-phosphorylated by PTPN1). […] The % inhibition was then used to calculate the IC50 values.

IC50 [2] [nM]	Compound	IC50 [1] [nM]
10 to 100	O=C1CN(c2c(O)cc3c(c2F)CN(CC2CC4CCC2O4)CC3)S(=O)(=O)N1 (stereo not drawn) [Compound 222, 5-{8-fluoro-6-hydroxy-2-[(7-oxabicyclo[2.2.1]heptan-2-yl)methyl]-1,2,3,4-tetrahydroisoquinolin-7-yl}-1λ^6,2,5-thiadiazolidine-1,1,3-trione]	10 to 100
10 to 100	CC(C)(CCN[C@H]1CCc2cc(O)c(N3CC(=O)NS3(=O)=O)c(F)c2C1)C(F)(F)F (single isomer, unassigned) [Compound 176]	10 to 100
10 to 100	CC(C)CNCC1Cc2cc(O)c(N3CC(=O)NS3(=O)=O)c(F)c2C1 (stereo not drawn) [Compound 275, 5-(4-fluoro-6-hydroxy-2-{[(2-methylpropyl)amino]methyl}-2,3-dihydro-1H-inden-5-yl)-1λ^6,2,5-thiadiazolidine-1,1,3-trione]	10 to 100
10 to 100	O=C1CN(c2c(O)cc3c(c2F)CC(OC(=O)Nc2ccccc2)CC3)S(=O)(=O)N1 (stereo not drawn) [Compound 149, 8-fluoro-6-hydroxy-7-(1,1,4-trioxo-1λ^6,2,5-thiadiazolidin-2-yl)-1,2,3,4-tetrahydronaphthalen-2-yl Phenylcarbamate]	1 to 10
> 100	CC(O)CCOC(=O)N1Cc2c(cc(O)c(N3CC(=O)NS3(=O)=O)c2F)C(F)(F)C1 (stereo not drawn) [Compound 304, 3-hydroxybutyl 4,4,8-trifluoro-6-hydroxy-7-(1,1,4-trioxo-1λ^6,2,5-thiadiazolidin-2-yl)-3,4-dihydroisoquinoline-2(1H)-carboxylate]	> 100
1 to 10	O=C1CN(c2c(O)cc3c(c2F)CC(NCCC2CC2)CC3)S(=O)(=O)N1 (stereo not drawn) [Compound 101, 5-{7-[(2-cyclopropylethyl)amino]-1-fluoro-3-hydroxy-5,6,7,8-tetrahydronaphthalen-2-yl}-1λ^6,2,5-thiadiazolidine-1,1,3-trione]	1 to 10
10 to 100	COC1CCc2c(F)c(O)c(N3CC(=O)NS3(=O)=O)c(F)c2C1 (stereo not drawn) [Compound 114, 5-(1,4-difluoro-3-hydroxy-7-methoxy-5,6,7,8-tetrahydronaphthalen-2-yl)-1λ^6,2,5-thiadiazolidine-1,1,3-trione]	10 to 100
10 to 100	O=C1CN(c2c(O)cc3c(c2F)CN(C[C@H]2C[C@@H]2c2ccncc2)CC3)S(=O)(=O)N1 (racemic) [Compound 248, 5-(8-fluoro-6-hydroxy-2-{[rac-(1R,2R)-2-(pyridin-4-yl)cyclopropyl]methyl}-1,2,3,4-tetrahydroisoquinolin-7-yl)-1λ^6,2,5-thiadiazolidine-1,1,3-trione]	10 to 100
10 to 100	O=C1CN(c2c(O)cc3c(c2F)C[C@@H]([C@H]2CCNC2)CC3)S(=O)(=O)N1 (single isomer, unassigned) [Compound 138, 5-{(7RS)-1-fluoro-3-hydroxy-7-[(3SR)-pyrrolidin-3-yl]-5,6,7,8-tetrahydronaphthalen-2-yl}-1λ^6,2,5-thiadiazolidine-1,1,3-trione]	10 to 100
10 to 100	COC1CCc2cc(O)c(N3CC(=O)NS3(=O)=O)c(F)c2C1 (stereo not drawn) [Compound 110, 5-(1-fluoro-3-hydroxy-7-methoxy-5,6,7,8-tetrahydronaphthalen-2-yl)-1λ^6,2,5-thiadiazolidine-1,1,3-trione]	10 to 100

Compound	IC50 [2] [nM]	IC50 [1] [nM]
CC(C)CCOC1CCc2c(cc(O)c(N3CC(=O)NS3(=O)=O)c2F)C1 (stereo not drawn) [Compound 314, 5-[1-fluoro-3-hydroxy-6-(3-methylbutoxy)-5,6,7,8-tetrahydronaphthalen-2-yl]-1λ^6,2,5-thiadiazolidine-1,1,3-trione]	> 100	10 to 100
O=C1CN(c2c(O)cc3c(c2F)CCC(OCCCC(F)F)C3)S(=O)(=O)N1 (stereo not drawn) [Compound 312, 5-[6-(4,4-difluorobutoxy)-1-fluoro-3-hydroxy-5,6,7,8-tetrahydronaphthalen-2-yl]-1λ^6,2,5-thiadiazolidine-1,1,3-trione]	10 to 100	10 to 100
